The numbers were not newly measured in US20040128703A1, “Methods and compositions for the generation of humanized mice” (priority 2002, published 2004), which cites them from elsewhere.

In data set [1] the target is T1, human PXR (Homo sapiens, UniProt O75469).
T1 sequence (O75469 1-434): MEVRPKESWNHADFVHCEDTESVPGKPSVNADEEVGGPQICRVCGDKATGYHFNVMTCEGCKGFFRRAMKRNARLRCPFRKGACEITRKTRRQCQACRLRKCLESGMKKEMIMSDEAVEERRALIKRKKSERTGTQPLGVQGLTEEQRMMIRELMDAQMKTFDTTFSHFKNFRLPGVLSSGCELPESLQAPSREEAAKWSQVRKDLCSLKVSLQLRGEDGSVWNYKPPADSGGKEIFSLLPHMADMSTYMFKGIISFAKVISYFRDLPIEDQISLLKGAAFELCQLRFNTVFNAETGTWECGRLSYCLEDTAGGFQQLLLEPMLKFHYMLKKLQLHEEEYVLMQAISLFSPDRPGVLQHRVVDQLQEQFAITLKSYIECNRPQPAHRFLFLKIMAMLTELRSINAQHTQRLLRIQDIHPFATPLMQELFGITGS
The conditions noted are these: human PXR transfected into rat hepatocytes.

The target of data set [2] is T1, human PXR. The conditions noted are these: transgenic mice, native PXR partially deleted, human PXR gene targeted to the liver.
Data set [3] has as its system CYP3A expression in rat hepatocytes.

Like-named read-outs stand apart in the source and are kept apart here.

`O=C(O)c1cn(C2CC2)c2cc(N3CCNCC3)c(F)cc2c1=O` [Ciprofloxacin]: the susceptibility of bacteria is listed as 86% with gram-negative bacilli (1994, US) and 76% in the data set on gram-negative bacilli (2000, US).
As for `CCOP(=O)(OCC)C(=Cc1cc(C(C)(C)C)c(O)c(C(C)(C)C)c1)P(=O)(OCC)OCC` [SR12813], the P-glycoprotein induction entry with P-glycoprotein was “induced”.
On to `CC(=O)O[C@H]1C(=O)[C@@]2(C)[C@H]([C@H](OC(=O)c3ccccc3)[C@]3(O)C[C@H](OC(=O)[C@H](O)[C@@H](NC(=O)c4ccccc4)c4ccccc4)C(C)=C1C3(C)C)[C@]1(OC(C)=O)CO[C@@H]1C[C@@H]2O` [Taxol], for which, in the data set with P-glycoprotein, the P-glycoprotein induction entry was “induced”.
Turning to `Clc1ccccc1C(c1ccccc1)(c1ccccc1)n1ccnc1` [clotrimazole], the “CYP3A expression in rat hepatocytes transfected with human PXR” value on human PXR [1] was “able to stimulate CYP3A expression”. For the same compound, in the data set on CYP3A4 expression, the “CYP3A4 expression in human liver” value is “stimulate CYP3A4 expression”. For the same compound, the “CYP3A expression in the mouse” value at human PXR [2] was “induced CYP3A expression”. In data set [3], the “effect on CYP3A expression in rat hepatocytes” value is “no effect”.
Regarding `CCC1(c2ccccc2)C(=O)NC(=O)NC1=O` [phenobarbital], the “CYP3A expression in rat hepatocytes transfected with human PXR” value on human PXR [1] is “able to stimulate CYP3A expression”. Besides, in the data set with CYP3A4 expression, the “CYP3A4 expression in human liver” value was “stimulate CYP3A4 expression”. In addition, the “effect on CYP3A expression in rat hepatocytes” value in data set [3] is given as “no effect”.
